Test [1] concerns the target T1, memapsin 1 (Homo sapiens, UniProt Q9Y5Z0).
T1 construct: pET-11 vector-derived residues 1-14 of promemapsin 1-T1 (N, cleaved yes); made in house; host or cells: E. coli
T1 sequence (Q9Y5Z0 63-466 limits assumed): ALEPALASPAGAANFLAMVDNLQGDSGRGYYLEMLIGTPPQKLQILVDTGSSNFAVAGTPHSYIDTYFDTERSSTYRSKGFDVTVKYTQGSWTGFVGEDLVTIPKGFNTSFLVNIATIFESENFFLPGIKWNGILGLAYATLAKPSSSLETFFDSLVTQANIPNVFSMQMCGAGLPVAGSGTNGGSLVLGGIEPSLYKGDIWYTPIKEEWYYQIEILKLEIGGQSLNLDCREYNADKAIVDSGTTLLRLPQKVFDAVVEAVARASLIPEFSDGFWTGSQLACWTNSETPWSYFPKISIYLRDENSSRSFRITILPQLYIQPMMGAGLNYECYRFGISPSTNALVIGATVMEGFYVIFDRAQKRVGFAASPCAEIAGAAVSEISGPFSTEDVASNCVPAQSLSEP
In words: Inhibition of memapsin 1 proteolytic activity, fluorogenic substrate FS-2. The test is classed as biochemical. Particulars: for pKi: Table 9, read-out: Ki apparent Mep1; for % Inhibition Mep1: enzyme concentration equals the compound concentration. Here is the method: Vi/Vo depicts the ratio of initial cleavage velocities of the substrate FS-2 (Ermolieff, et al., Biochemistry […]:12450-12456 (2000)) by memapsin 1 or memapsin 2 in the absence (Vo) or presence (Vi) of a compound of the invention. […] The Vi/Vo values depicted in Table 1 were determined at conditions under which the enzyme and inhibitor concentrations were equal (e.g., about 80 nM, 100 nM).
The relationship of Ki (independent of substrate concentration) to Kiapp is a function of substrate concentration in the assay and the Km for cleavage of the substrate by either memapsin 1 or memapsin 2 by the relationship:
An aliquot of the inhibitor of known concentration in DMSO was diluted into 1.8 ml 0.1 M NaOAc, pH 4.0. DMSO and added to a final concentration of 10% (v/v), and memapsin 2 (final concentration of 80 nM), followed by a 20 minute equilibration at 37° C. Compounds were evaluated for the ability to inhibit memapsin 1 and memapsin 2 at concentrations between about 10 nM and about 10 μm of inhibitor.
The relationship of Ki (independent of substrate concentration) to Kiapp is a function of substrate concentration in the assay and the Km for cleavage of the substrate by either memapsin 1 or memapsin 2 by the relationship: […]

For test [2], the target named is T2, memapsin 2 (Homo sapiens, UniProt P56817).
T2 construct: pET-11 vector-derived residues 1-15 of promemapsin 2-T1 (N, cleaved yes); made in house; host or cells: E. coli
T2 sequence (P56817 41-454 limits assumed): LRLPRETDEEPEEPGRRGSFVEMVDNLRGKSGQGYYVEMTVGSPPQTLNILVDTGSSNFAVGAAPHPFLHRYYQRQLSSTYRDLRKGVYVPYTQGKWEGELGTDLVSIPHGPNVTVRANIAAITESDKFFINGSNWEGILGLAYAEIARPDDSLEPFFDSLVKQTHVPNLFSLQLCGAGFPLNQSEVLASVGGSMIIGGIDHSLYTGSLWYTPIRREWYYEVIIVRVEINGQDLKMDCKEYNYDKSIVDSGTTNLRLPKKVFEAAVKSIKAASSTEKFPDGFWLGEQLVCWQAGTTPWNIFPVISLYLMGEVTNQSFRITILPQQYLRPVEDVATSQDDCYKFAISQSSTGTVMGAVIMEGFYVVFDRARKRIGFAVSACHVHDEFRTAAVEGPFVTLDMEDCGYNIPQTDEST
In words: Inhibition of memapsin 2 proteolytic activity, fluorogenic substrate FS-2. Type of test: biochemical. Particulars: for % Inhibition Mep2: enzyme concentration equals the compound concentration; for % Inh (M1/M2): ratio of % inhibition memapsin 1 / memapsin 2, 1 or less = greater inhibition of memapsin 2; for Vi/Vo: ratio of initial cleavage velocities of FS-2 with/without compound, enzyme and inhibitor concentrations equal (e.g., about 80 nM, 100 nM). The procedure, abridged: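 Spontaneously activated memapsin 2 (80 nM final) equilibrated with inhibitor (about 10 nM–10 μM) in 0.1 M NaOAc pH 4.0 with 10% DMSO for 20 min at 37 °C, with fluorogenic substrate FS-2. Ki converted from Ki apparent using substrate concentration and Km.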

Where [3] appears, read: Table 9, read-out: Ki apparent Mep2.
Setting [4] is: memapsin 2, apparent Ki in presence of substrate FS-2, read-out: Ki app.
[5] abbreviates: memapsin 2, independent of substrate, converted from Ki apparent, read-out: Ki.

pKi: −log10 of the molar value. Where two headings read alike, the source gives them in different places. *1 amine or outer side, *2 acyl side, *3 side chain or, on linkers, in order; H or OH if unused. Where a SMILES comes first, the peptide text is derived from it. [ ]: non-standard residue; d: D form. LeuΨ(S-CHOHCH2)Ala = CC(C)C[C@H](N[*:1])[C@@H](O)C[C@@H](C)C(=O)[*:2]

For the compound `CSCC[C@H](NC(=O)[C@@H](NC(=O)OC(C)(C)C)C(C)C)C(=O)N[C@@H](CC(C)C)[C@@H](O)C[C@@H](C)C(=O)N[C@H](C(=O)NCc1ccccc1)C(C)C` [MMI-017], the pKi was 8.92 in test [1], 8.41 in test [2] (setting [3]), 8.41 in test [2] (setting [4]) and 8.62 in test [2] (setting [5]).
In the case of `CC(C)C[C@H](NC(=O)[C@H](CS(C)(=O)=O)NC(=O)[C@@H](NC(=O)OC(C)(C)C)C(C)C)[C@@H](O)C[C@@H](C)C(=O)N[C@H](C(=O)NCc1ccccc1)C(C)C` [MMI-026], the negative logarithm of the Ki (pKi) was 7.35 in test [1], 7.80 in test [2] (setting [3]), 7.80 in test [2] (setting [4]) and 8.00 in test [2] (setting [5]).
For `CC(C)C[C@H](NC(=O)[C@H](CCS(C)(=O)=O)NC(=O)[C@@H](NC(=O)OC(C)(C)C)C(C)C)[C@@H](O)C[C@@H](C)C(=O)N[C@@H](C(=O)NCc1ccccc1)[C@@H](C)O` [MMI-073], the “% Inhibition Mep1” value in test [1] is on record as 38%. Besides, in test [2], the “% Inhibition Mep2” value is 52%, the “% Inh (M1/M2)” value turned out to be 0.73 and the Vi/Vo was found to be 0.48.
As for `CSCC[C@H](NC(=O)[C@@H](NC(=O)OC(C)(C)C)C(C)C)C(=O)N[C@@H](CC(C)C)[C@@H](O)C[C@@H](CO)C(=O)N[C@H](C(=O)NCc1ccccc1)C(C)C` [MMI-078], the “% Inhibition Mep1” value in test [1] (listed as 78) is given as 28%. Further, in test [2] (listed as 78), the “% Inhibition Mep2” value is 37% and the “% Inh (M1/M2)” value was 0.76. Besides, the Vi/Vo in test [2] was 0.63.
With `CSCC[C@H](NC(=O)[C@@H](NC(=O)OC(C)(C)C)C(C)C)C(=O)N[C@@H](CC(C)C)[C@@H](O)C[C@@H](C)C(=O)N[C@@H](CC(C)C)C(=O)NCc1ccco1` [MMI-116], in test [1], the “% Inhibition Mep1” value is given as 85%. Also, in test [2], the “% Inhibition Mep2” value is listed as 56%, the “% Inh (M1/M2)” value was 1.52 and the Vi/Vo amounted to 0.29. In addition, the pKi in test [2] (setting [4]) is 7.31. In addition, in test [2] (setting [5]), the pKi was 7.51.
In the case of `CSCC[C@H](NC(=O)[C@@H](NC(=O)OC(C)(C)C)C(C)C)C(=O)N[C@@H](CC(C)C)[C@@H](O)C[C@@H](CO)C(=O)N[C@H](C(=O)NCc1ccccc1)C(C)C` [MMI-132], in test [1], the “% Inhibition Mep1” value was 61%. In test [2], the “% Inhibition Mep2” value is 47%, the “% Inh (M1/M2)” value came to 1.30 and the Vi/Vo was determined as 0.46. Also, in test [2] (setting [4]), the pKi is 6.97. Further, the pKi in test [2] (setting [5]) is 7.17.
For `CSCC[C@H](NC(=O)[C@@H](NC(=O)OC(C)(C)C)C(C)C)C(=O)N[C@@H](CC(C)C)[C@@H](O)C[C@H](C(=O)N[C@@H](C)C(=O)NCc1ccccc1)C(C)C` [MMI-211], the negative-log Ki (pKi) in test [2] (setting [4]) was 6.12; in test [2] (setting [5]), 6.32.
As to `CSCC[C@H](NC(=O)OCn1nc(C)cc1C)C(=O)N[C@@H](CC(C)C)[C@@H](O)C[C@@H](C)C(=O)N[C@H](C(=O)NCc1ccco1)C(C)C` [MMI-212], the negative logarithm of the Ki (pKi) in test [2] (setting [4]) is 7.15; in test [2] (setting [5]), 7.35.
Consider `CSCC[C@H](NC(=O)CCn1nc(C)cc1C)C(=O)N[C@@H](CC(C)C)[C@@H](O)C[C@@H](C)C(=O)N[C@H](C(=O)NCc1ccco1)C(C)C` [MMI-213], for which the pKi in test [2] (setting [4]) was 7.07; in test [2] (setting [5]) it was 7.28.
Consider `CSCC[C@H](NC(=O)C(C)Cn1nc(C)cc1C)C(=O)N[C@@H](CC(C)C)[C@@H](O)C[C@@H](C)C(=O)N[C@H](C(=O)NCc1ccco1)C(C)C` (stereo partly drawn) [MMI-214], for which the negative logarithm of the Ki (pKi) in test [2] (setting [4]) is 7.72; in test [2] (setting [5]) it was 7.93.
The like results for `CC(C)C[C@H](NC(=O)OC(C)(C)C)C(=O)N[C@@H](CC1CCCO1)C(=O)N[C@@H](CC(C)C)[C@@H](O)C[C@@H](C)C(=O)N[C@@H](CC(C)C)C(=O)NC(C)C` (stereo partly drawn) [MMI-215] were, in that order, 7.51 and 7.71.
The like results for `CSCC[C@H](NC(=O)OCn1nc(C)cc1C)C(=O)N[C@@H](CC(C)C)[C@@H](O)C[C@@H](C)C(=O)N[C@@H](CC(C)C)C(=O)N1CCN(C)CC1` [MMI-216] were, in that order, 5.92 and 6.12.
In the case of `CSCC[C@H](NC(=O)OCn1nc(C)cc1C)C(=O)N[C@@H](CC(C)C)[C@@H](O)C[C@@H](C)C(=O)N[C@H](C(=O)N1CCN(C)CC1)C(C)C` [MMI-217], the pKi was 5.97 in test [2] (setting [4]) and 6.17 in test [2] (setting [5]).
Take `CCCCNC(=O)[C@@H](NC(=O)C(C)(C)C[C@H](O)[C@H](CC(C)C)NC(=O)[C@H](CCSC)NC(=O)OCn1nc(C)cc1C)C(C)C` [MMI-218]: in test [2] (Ki, [I] < 100, memapsin 2, [I] < 100 (nM)), the inhibition constant Ki came out at 226 nM. Also, the pKi in test [2] (setting [4]) was 5.75; in test [2] (setting [5]), 5.95.
Consider `CSCC[C@H](NC(=O)OC(C)(C)Cn1nc(C)cc1C)C(=O)N[C@@H](CC(C)C)[C@@H](O)C[C@@H](C)C(=O)N[C@@H](CC(C)C)C(=O)NC(C)C` [MMI-219], for which the negative logarithm of the Ki (pKi) was 5.85 in test [2] (setting [4]) and 6.05 in test [2] (setting [5]).
In the same order, the values of `CSCC[C@H](NC(=O)OCCn1nc(C)c2c1CCC2)C(=O)N[C@@H](CC(C)C)[C@@H](O)C[C@@H](C)C(=O)N[C@@H](CC(C)C)C(=O)NC(C)C` [MMI-220] are 5.35 and 5.55.
Regarding `CSCC[C@H](NC(=O)OCCn1nc(C)c2c1CSC2)C(=O)N[C@@H](CC(C)C)[C@@H](O)C[C@@H](C)C(=O)N[C@@H](CC(C)C)C(=O)NC(C)C` [MMI-221], the values for the negative logarithm of the Ki (pKi) in test [2] (setting [4]) and in test [2] (setting [5]) were 5.72 and 5.92, respectively.
As for `CSCC[C@H](NC(=O)OCCn1nc(C)c2c1CS(=O)(=O)C2)C(=O)N[C@@H](CC(C)C)[C@@H](O)C[C@@H](C)C(=O)N[C@@H](CC(C)C)C(=O)NC(C)C` [MMI-222], the pKi in test [2] (setting [4]) is 5.61; in test [2] (setting [5]), 5.82.
For `Cc1cc(C)n(CCOC(=O)N[C@@H](CCN2CCOCC2)C(=O)N[C@@H](CC(C)C)[C@@H](O)C[C@@H](C)C(=O)N[C@@H](CC(C)C)C(=O)NC(C)C)n1` [MMI-223], the pKi in test [2] (setting [4]) was 5.07; in test [2] (setting [5]), 5.28.
Take `CSCC[C@H](NC(=O)OCn1nc(C)cc1C)C(=O)N[C@@H](CC(C)C)[C@@H](O)C[C@@H](C)C(=O)N[C@@H](CC(C)C)C(=O)NC(C)C` [MMI-224]: the negative-log Ki (pKi) in test [2] (setting [4]) was 7.15; in test [2] (setting [5]), 7.36.
As to `CSCC[C@H](NC(=O)C(Cn1nc(C)cc1C)C(C)C)C(=O)N[C@@H](CC(C)C)[C@@H](O)C[C@@H](C)C(=O)N[C@H](C(=O)NCc1ccco1)C(C)C` (stereo partly drawn) [MMI-225], the negative logarithm of the Ki (pKi) is 7.39 in test [2] (setting [4]) and 7.59 in test [2] (setting [5]).
For the compound `CSCC[C@H](NC(=O)C(C)Cn1nc(C)cc1C)C(=O)N[C@@H](CC(C)C)[C@@H](O)C[C@@H](C)C(=O)N[C@@H](CC(C)C)C(=O)NCc1ccco1` (stereo partly drawn) [MMI-226], the pKi in test [2] (setting [4]) was 6.96; in test [2] (setting [5]) it was 7.16.
The like results for `CSCC[C@H](NC(=O)O[C@H]1CCOC1)C(=O)N[C@@H](CC(C)C)[C@@H](O)C[C@@H](C)C(=O)N[C@@H](CC(C)C)C(=O)NC(C)C` [MMI-227] were, in that order, 6.14 and 6.35.
As for `COCC[C@H](NC(=O)C(Cn1nc(C)cc1C)C(C)C)C(=O)N[C@@H](CC(C)C)[C@@H](O)C[C@@H](C)C(=O)N[C@H](C(=O)NCC(C)C)C(C)C` (stereo partly drawn) [MMI-228], the pKi was 6.75 in test [2] (setting [4]) and 6.96 in test [2] (setting [5]).
Take `CC(C)C[C@H](NC(=O)[C@H](CC(N)=O)NC(=O)[C@@H](N)C(C)C)[C@@H](O)C[C@@H](C)C(=O)N[C@@H](C)C(=O)N[C@@H](CCC(=O)O)C(=O)O` [OM01-1] (H-VN[LeuΨ(S-CHOHCH2)Ala]AE-OH): the pKi in test [2] (memapsin 2, read-out: Ki) is 6.90.
